Assay results as given in US10154991B2, “Anesthetic compounds and related methods of use” (priority 2012, dated 2018).
Read-outs that look alike come from different tables or passages of the source.

Experiments:
[1] = test system: ICR mice; experiment: In vivo sedative/hypnotic testing, IV bolus, mice; set-up: species or system mouse; details: for Mouse response: IV bolus, doses as in the cell; for ED50: Mus musculus, sedation/hypnosis, IV
Description: (§1) Animals were housed in a dedicated room at the vivarium of VivoPath Inc., located at Redstone Center, 55 Union Street, Worcester, Mass. Housing and care was as specified in the USDA Animal Welfare Act (9 CFR, Parts 1, 2, and 3) and as described in the Guide for the Care and Use of Laboratory Animals from the National Research Council. Environmental conditions of housing rooms are set at the following ranges: temperature: 70±7° F. (22±4° C.), humidity: 50±20%, light cycle: 12-hour light/12-hour dark cycle—lights on at 7 am and off at 7 pm., air changes: ten or more air changes per hour with 100% fresh air. The animals' body weights were measured prior to the first dose on each experimental day.
Adult ICR mice (20-30 g) were purchased from Harlan (South Easton, Mass.). Drugs were administered as intravenous bolus injection in a tail vein.
(§2) Drugs were prepared in either dimethylsulfoxide/saline or saline vehicle or hydroxypropyl-β-cyclodextrin (20% in water, pH 7.0) solution and were administered as an intravenous bolus injection. Animals received 1-4 doses of drug(s) during an experimental day, either ascending doses or different drugs. Doses were administered at intervals equal to the longer of 1 h or 10-times the duration of apparent sedative/hypnotic effects from the previous dose. The sedative/hypnotic properties of the drugs were evaluated by observation of the rats, ranging from mild excitation, mild sedation apparent due to reduced activity, and moderate sedation to hypnosis reflected by loss of righting reflex (LORR, the ability to place rear and hind legs under the body, as well as attenuation/loss of nociceptive reflexes).

[2] = test system: Sprague-Dawley rats; experiment: In vivo sedative/hypnotic testing, IV bolus, rats; set-up: species or system rat; details: for Rat response: IV bolus, doses as in the cell; for ED50: Rattus norvegicus, sedation/hypnosis, IV
Description: as §1
Adult male Sprague-Dawley rats (225-300 g) were purchased from Harlan (South Easton, Mass.).
as §2

[3] = In vitro metabolic half-life of hypnotics in rat blood; assay type: in vitro ADME; details: for half-life at 100 μM: Sprague-Dawley, rat; for half-life at 100 μM / metabolic half-life of S form compared with R form: rat blood
Description: On the day of study, whole blood was drawn from the femoral venous catheters of 3 Sprague-Dawley rats (1-2 ml/rat), immediately anticoagulated with heparin (38 U), pooled, and stored on ice. A 1 ml aliquot of blood was warmed at 37° C. for 5 minutes and hypnotic (from a 40 mM in dimethyl sulfoxide stock solution) was added to a final concentration of 100 μM. After the desired incubation time, a 150 μl sample was removed and the metabolic reaction was quenched with 150 μl acetonitrile (Sigma-Aldrich, St. Louis, Mo.). Zero time point samples were prepared by adding 150 μl acetonitrile to blood prior to adding hypnotic (from a 4 mM in dimethyl sulfoxide stock solution). The quenched samples were centrifuged and the resultant supernatant separated and stored at −20° C. until analyzed. Hypnotic concentrations in thawed samples were determined by high performance liquid chromatography using a Varian Prostar system with a 4.6×250 mm Proto 300 C18 column (Nest Group, Southborough, Mass.) with the UV detector set at 240 nm.

[4] = Octanol:water partition coefficients; assay type: physicochemical; details: 10 mM Tris pH 7.4; read-out: Octanol/Water Partition Coefficient ± SD (converted)
Description: One mg of each hypnotic was added to 10 ml of water buffered with 10 mM Tris (pH 7.4) and 0.5 ml or 1 ml of octanol. The mixture was stirred overnight and then centrifuged to more fully separate the organic and aqueous phases. The relative hypnotic concentrations in each phase (i.e. the partition coefficient) were determined by high performance liquid chromatography as described for blood.

[5] = test system: rats; experiment: loss of righting reflexes (LORR) assay after IV bolus; details: for ED50: Rattus norvegicus, iv, read-out: ED50 ± SD; for hypnotic potency compared with methoxycarbonyl etomidate and etomidate / in vivo duration of action compared with methoxycarbonyl etomidate and etomidate: rat, in vivo; for death of a rat after dosing: one rat, 20 mg/kg dose; for R/S ED50 ratio: ED50 for LORR of R form over S form
Description: Adult male Sprague-Dawley rats (230-350 gm) were purchased from Charles River Laboratories (Wilmington, Mass.) and housed in the Massachusetts General Hospital Center for Comparative Medicine animal care facility. All drugs were administered through a femoral venous catheter pre-implanted by the vendor prior to animal delivery to our animal care facility.
Immediately after injection, rats were turned supine. […] A stopwatch was used to measure the duration of LORR, which was defined as the time from drug injection until the animal spontaneously righted itself.

[6] = test system: beagle dogs; details: dog, in vivo
Description: A pilot study was conducted in dogs to assess anesthesia induced by cyclopropyl-MOC-metomidate continuous infusion without a bolus induction dosing. Two dogs received cyclopropyl-MOC-metomidate as a 1 mg/kg/min IV infusion without prior bolus administration.
Anesthesia induction was determined using the methods described above.
Etomidate was administered to dogs at IV bolus doses ranging from 0.25 to 2 mg/kg. Anesthesia in the dogs was measured as described above. […] The bolus dose of 2 mg/kg was adopted to induce anesthesia prior to subsequent continuous infusions.
Propofol was administered to dogs as an IV bolus dose of 5 mg/kg to induce anesthesia followed by a continuous infusion at 0.4 mg/kg/min.

[7] = pooled heparinised whole blood, 37° C., 100 μM, read-out: Blood Half-Life (95% CI)
[8] = pooled heparinised whole blood, bound based on the lower limit of quantification, read-out: metabolic half-life in rat blood (converted)

## C[C@H](c1ccccc1)n1cncc1C(=O)OC1(C(=O)OC2COC2)CC1
[1]
  Mouse response: No effect at 4 mg/kg IV

## COC(=O)c1ccccc1OC(=O)c1cncn1[C@H](C)c1ccccc1
[1]
  Mouse response: Mild excitation but no sedation at 2, 4 or 8 mg/kg IV

## COC(=O)C1(OC(=O)c2cncn2[C@H](C)c2ccccc2)CCCC1
[2]
  Rat response: Sedative at 1 & 2 mg/kg, with rear paws out but head and forepaws mobile Hypnotic at 4 & 8 mg/kg, quite long-acting

## COC(=O)C1(OC(=O)c2cncn2[C@H](C)c2ccccc2)CCCCC1
[2]
  Rat response: Mildly sedative at 4 mg/kg Hypnotic at 8 mg/kg - deep and long-acting

## COC(=O)C1(OC(=O)c2cncn2[C@H](C)c2ccccc2)CCNCC1
[2]
  Rat response: No effect apparent at 4, 8 & 16 mg/kg

## COC(=O)C1(OC(=O)c2cncn2[C@H](C)c2ccccc2)CCN(C)CC1
[2]
  Rat response: No effect apparent at 4, 8 & 16 mg/kg

## COC(=O)C1(OC(=O)c2cncn2[C@H](C)c2ccccc2)CCOCC1
[2]
  Rat response: Mildly sedative at 16 mg/kg More profound short-acting sedation at 32 mg/kg

## COC(=O)C(OC(=O)c1cncn1[C@H](C)c1ccccc1)C1CC1 (stereo partly shown)
[1]
  Mouse response: Sedation/hypnosis induced at 8, 16 & 32 mg/kg IV
  ED50: ~8 mg/kg

## COC(=O)[C@@H](C)OC(=O)c1cncn1[C@H](C)c1ccccc1 [(R)-methyl- methoxycarbonyl metomidate, R-methyl-methoxycarbonyl metomidate]
[3]; [7]
  half-life at 100 μM: < 1.8 s
[3]; [8]
  half-life at 100 μM: < 2 s
[4]
  logD: 2.58
[5]
  ED50: 9.6 ± 1.9 mg/kg

## COC(=O)[C@H](C)OC(=O)c1cncn1[C@H](C)c1ccccc1 [(S)-methyl- methoxycarbonyl metomidate, S-methyl-methoxycarbonyl metomidate]
[3]; [7]
  half-life at 100 μM: 8.4 s
[3]
  metabolic half-life of S form compared with R form: at least four-fold longer
[4]
  logD: 2.52
[5]
  ED50: 3.5 ± 0.4 mg/kg

## COC(=O)C1(OC(=O)c2cncn2[C@H](C)c2ccccc2)CCC1 [Cyclobutyl-MOC-metomidate, cyclobutyl-methoxycarbonyl metomidate]
[1]
  Mouse response: Sedation/hypnosis induced at 2, 4 & 8 mg/kg IV
  ED50: 1 to 2 mg/kg
[1]; mice
  slope of duration of LORR vs logarithm of dose: approximately 7
[2]
  Rat response: Sedation/hypnosis induced at 1, 2, 4 & 8 mg/kg IV
  ED50: ~1 mg/kg
[2]; rats
  slope of duration of LORR vs logarithm of dose: ~5
[5]
  hypnotic potency compared with methoxycarbonyl etomidate and etomidate: nearly an order of magnitude higher than that of methoxycarbonyl etomidate and similar to that of etomidate
  in vivo duration of action compared with methoxycarbonyl etomidate and etomidate: intermediate between those of methoxycarbonyl etomidate and etomidate

## COC(=O)C(C)(C)OC(=O)c1cncn1[C@H](C)c1ccccc1 [Dimethyl- methoxycarbonyl metomidate, dimethyl-methoxycarbonyl metomidate]
[3]
  in vitro metabolic half-life compared with methoxycarbonyl etomidate and etomidate: intermediate between those of methoxycarbonyl etomidate and etomidate
[3]; 37° C., 100 μM, read-out: Blood Half-Life (95% CI)
  half-life at 100 μM: 522 s
[4]
  logD: 2.82
[5]; 20 mg/kg dose vs ED50
  lethal dose relative to ED50 for LORR: 28 fold
[5]
  ED50: 0.72 ± 0.16 mg/kg
  death of a rat after dosing: died
  hypnotic potency compared with methoxycarbonyl etomidate and etomidate: nearly an order of magnitude higher than that of methoxycarbonyl etomidate and similar to that of etomidate
  in vivo duration of action compared with methoxycarbonyl etomidate and etomidate: intermediate between those of methoxycarbonyl etomidate and etomidate

## COC(=O)COC(=O)c1cncn1[C@H](C)c1ccccc1 [Methoxycarbonyl metomidate, methoxycarbonyl metomidate]
[3]; [7]
  half-life at 100 μM: < 1.8 s
[3]; [8]
  half-life at 100 μM: < 2 s
[4]
  logD: 2.2
[5]
  ED50: 11.1 ± 0.8 mg/kg

## COC(=O)c1cncn1[C@H](C)c1ccccc1 [Metomidate, reference compound]
[3]; [7]
  half-life at 100 μM: 8580 s
[4]
  logD: 2.58
[5]
  ED50: 0.73 ± 0.5 mg/kg

## CC(C)c1cccc(C(C)C)c1O [Propofol]
[6]
  emergence from anesthesia after the end of infusion: approximately 15 minutes
  recovery of normal behavior after infusion: ≥ 30 min
  recovery time relative to cyclopropyl-MOC-metomidate infusion of the same duration: approximately 3 fold

## COC(=O)[C@@H](OC(=O)c1cncn1[C@H](C)c1ccccc1)C(C)C [R-isopropyl-methoxycarbonyl metomidate]
[3]; [7]
  half-life at 100 μM: 9 s
[4]
  logD: 3.58
[5]
  ED50: 3.6 ± 0.8 mg/kg
  death of a rat after dosing: died after receiving a 20 mg/kg dose

## COC(=O)[C@H](OC(=O)c1cncn1[C@H](C)c1ccccc1)C(C)C [S-isopropyl-methoxycarbonyl metomidate]
[3]; [7]
  half-life at 100 μM: 930 s
[3]
  metabolic half-life of S form compared with R form: two orders of magnitude longer
[4]
  logD: 3.46
[5]
  ED50: 1.2 ± 0.19 mg/kg
[5]; duration of LORR vs log dose, rats
  Slope of Duration vs. Log Dose ± SD: 12.1±1.1 min/(log mg/kg)

## CCOC(=O)c1cncn1[C@H](C)c1ccccc1 [drawing 81]
[1]
  Mouse response: Sedation/hypnosis induced at 2 & 4 mg/kg IV
  ED50: ~0.7 mg/kg
[2]
  Rat response: Sedation/hypnosis induced at 2 & 4 mg/kg IV
  ED50: ~0.7 mg/kg

## COC(=O)C1(OC(=O)c2cncn2[C@H](C)c2ccccc2)CC1 [drawing 83]
[1]
  Mouse response: Sedation/hypnosis induced at 2 & 4 mg/kg IV
  ED50: ~0.7 mg/kg
[2]
  Rat response: Sedation/hypnosis induced at 2 & 4 mg/kg IV
  ED50: ~0.7 mg/kg

## COC(=O)C(OC(=O)c1cncn1C(C)c1ccccc1)C(C)C (stereo not shown) [isopropyl-methoxycarbonyl metomidate]
[5]
  R/S ED50 ratio: 3.0

## COC(=O)[C@H](C)COC(=O)c1cncn1[C@H](C)c1ccccc1 [α-(R)- methyl- methoxycarbonyl etomidate, α-R-methyl-methoxycarbonyl etomidate]
[3]; [7]
  half-life at 100 μM: 11.4 s
[4]
  logD: 2.83
[5]
  ED50: 5.2 ± 0.5 mg/kg

## COC(=O)[C@@H](C)COC(=O)c1cncn1[C@H](C)c1ccccc1 [α-(S)- methyl- methoxycarbonyl etomidate, α-S-methyl-methoxycarbonyl etomidate]
[3]; [7]
  half-life at 100 μM: 45.6 s
[3]
  metabolic half-life of S form compared with R form: at least four-fold longer
[4]
  logD: 2.72
[5]
  ED50: 3.1 ± 0.4 mg/kg

## COC(=O)C(C)(C)COC(=O)c1cncn1[C@H](C)c1ccccc1 [α-dimethyl- methoxycarbonyl etomidate, α-dimethyl-MOC-etomidate]
[3]; [7]
  half-life at 100 μM: 156 s
[4]
  logD: 3.35
[5]
  ED50: 2.4 ± 1 mg/kg

## COC(=O)C[C@@H](C)OC(=O)c1cncn1[C@H](C)c1ccccc1 [β-(R)- methyl- methoxycarbonyl etomidate, β-R-methyl-MOC-etomidate]
[3]; [7]
  half-life at 100 μM: 54.6 s
[4]
  logD: 2.7
[5]
  ED50: 3.5 ± 0.6 mg/kg

## cyclopentyl-methoxycarbonyl metomidate
[5]
  hypnotic potency compared with methoxycarbonyl etomidate and etomidate: nearly an order of magnitude higher than that of methoxycarbonyl etomidate and similar to that of etomidate
  in vivo duration of action compared with methoxycarbonyl etomidate and etomidate: intermediate between those of methoxycarbonyl etomidate and etomidate

## methyl-methoxycarbonyl metomidate
[5]
  R/S ED50 ratio: 2.7

## α-methyl-methoxycarbonyl etomidate
[5]
  R/S ED50 ratio: 1.7

## β-methyl-methoxycarbonyl etomidate
[5]
  R/S ED50 ratio: 1.2
